Reference: patent publication US11059855B2, “Antimicrobial peptides and methods of making and using same” (priority 2017, dated 2021)
Read-outs that look alike come from different tables or passages of the source. No end group written: not given here.

Tests used:
P. aeruginosa = experiment: Bacterial minimum inhibitory concentration (MIC), P. aeruginosa; assay type: cell-based, Pseudomonas aeruginosa; details: 75 μM maximum tested; NDA = not determinable
Experimental: (§1) Escherichia colt strain ATCC 25922, Staphylococcus aureus strain ATCC 25923, and Pseudomonas aeruginosa strain ATCC PAO1 were used in this study. Overnight cultures were subcultured to log phase (OD600=0.3-0.6) after which cell counts were determined by measuring the OD600 (OD600 1.0=1.5×10^8 CFU/mL for S. aureus, 5×10^8 CFU/mL for E. colt, and 2.04×10^8 CFU/mL for P. aeruginosa). Bacteria in minimal media mere added to serially diluted peptides and incubated for 3 hr, followed by the addition of full growth media. After overnight incubation, the optical density of the wells was recorded on a plate reader to determine whether they were sterilized (OD<0.08) or were at stationary phase growth (OD600>0.5). Intermediate values, which were rare, were considered positive for growth. Average minimum sterilizing concentrations were calculated from the lowest peptide concentration that sterilized the bacteria in each serial dilution. The samples were done in sextuplet.

[1] = ANTS/DPX leakage assay, POPG; assay type: biochemical; details: P:L = 1:1000, pH 7 phosphate buffer
Experimental: (§2) 5 mM ANTS and 12.5 mM DPX were entrapped in 0.1 μm diameter extruded vesicles with lipids. Gel filtration chromatography of Sephadex G-100 (GE Healthcare Life Sciences Inc.) was used to remove external free ANTS/DPX from LUVs with entrapped contents. […] Leakage was measured after 3 hr incubation. 10% Triton was used as the positive control to measure the maximum leakage of the vesicle. Fluorescence emission spectra were recorded using excitation wavelength (Ex: 350 nm) and emission wavelength (Em: 510 nm) for ANTS/DPX using Synergy H1 Hybrid Multi-Mode Reader.
(§3) This detects and quantifies the release of a small fluorescent dye (ANTS/DPX; MW=˜400 Da) encapsulated in LUVs after addition of library peptides. Neutral POPC LUVs serve as a simple model for mammalian membranes, while charged POPG LUVs mimic bacterial membranes enriched in anionic lipids.

S. aureus = experiment: Bacterial minimum inhibitory concentration (MIC), S. aureus; assay type: cell-based, Staphylococcus aureus; details: 75 μM maximum tested; NDA = not determinable
Experimental: as §1

[2] = ANTS/DPX leakage assay, POPC; assay type: biochemical; details: P:L = 1:1000, pH 7 phosphate buffer
Experimental: as §2, §3

[3] = 3-kDa dextran macromolecule release assay, POPG; assay type: biochemical; details: P:L = 1:1000, pH 7 phosphate buffer
[4] = cited from earlier work
[5] = Tryptophan fluorescent binding assay
Source text: To further investigate why some peptides (i.e. 7D12, 7G6, 11D12, 24F1, and 28H6) show selectivity for membrane types we measured peptide binding and secondary structural changes to vesicles containing binary mixtures of POPC and POPG lipids. FIGS. 10a-10e show the changes in the CD and tryptophan fluorescence spectra for these peptides upon addition of LUVs for whom the ratio of POPG was elevated from 0 to 100%. […] Consistent with the POPC/POPG leakage assay, these lipid selective peptides show little or no binding to POPC, which bind strongly to POPG. […] All other peptides have tryptophan fluorescence peaks around 350 nm, indicative of monomeric peptides. Addition of LUVs to 28H6 results in higher intensity and smaller width of the peak indicative of membrane binding. Remarkably, the CD spectra of 28H6 change from a helical aggregate in solution or POPC LUVs, to beta-strand conformations in the presence of anionic POPG lipids. Increasing the temperature of 28H6 with POPG vesicles can destabilize the beta-strand structure and reverse it to helix as the conformation of 28H6 with POPC (Table 8).

[6] = Membrane selectivity from high-throughput dye leakage screen; assay type: biochemical; details: PC = POPC, PG = POPG
Source text: as §3

[7] = Circular dichroism secondary structure (Dichroweb), with POPG; assay type: physicochemical
Experimental: (§4) Dichroweb software analyzes the secondary structure of LDKA peptides from circular dichroism spectroscope. The table presents the percentage of each helix and strand structure at different temperature. The data are analyzed using CONTIN-LL method and Reference Set 4 (Optimised for 190-240 nm).
(§5) Peptide solutions (peptide concentration is 50 μM) were titrated with POPC and POPG LUVs (50, 100, 250, 500, 1000 μM) and the corresponding changes CD spectra collected. Analysis of these spectra using CD tools and Dichroweb provides an ensemble average of the changes in secondary structure in the presence of POPC and POPG LUVs (dichroweb.cryst.bbk.ac.uk), which gives a direct measure of the binding free energies for each peptide.

[8] = Circular dichroism secondary structure (Dichroweb), with POPC; assay type: physicochemical
Experimental: as §4, §5

[9] = Circular dichroism secondary structure (Dichroweb), peptide only; assay type: physicochemical; details: 20 °C
Experimental: as §4, §5

[10] = Pore-size characterization by 3-kDa dextran release; assay type: biochemical; details: ‡Large pore for PG only
Source text: Eight LDKA peptides with different lipid selectivity and pore sizes were selected from the high-throughput screen and sequenced. […] The most common mutation is L to A, occurred 13 times and in 7 out of the 8 peptides, followed by A to L, which occurred 6 times in 5 peptides, L to D which occurred 3 times in 3 peptides, and L to P that occurred once. Lysine (K) is not favorable to be shown at the position 6, 8, 10, 12, and 13, which is the non-polar face of the helical structure. […] More specifically, the analogs only induce leakage from anionic POPG vesicles have 4-5 leucines, which is less than the analogs that can porate both POPC and POPG vesicles and have 6-7 leucines in their sequences.

[11] = system: methicillin-resistant Staphylococcus aureus (MRSA); assay type: cell-based; details: 75 μM maximum tested; NDA = not determinable
[12] = system: ciprofloxacin-resistant E. coli
Experimental: “N.D.” means “not determined”.
Ceftazidime is active on the bacteria's cell wall and interferes with bacterial cell wall formation.^38,39 Ciprofloxacin is able to inhibit DNA gyrase, type II topoisomerase, and topoisomerase IV to separate bacterial DNA and inhibits cell division.^40 Streptomycin and gentamicin are antibiotics that can interrupt and inhibit protein synthesis.^41,42 E. coli strain ATCC 25922 cultures were grown in the presence of each of these antibiotics at elevated concentration for 10 generations.

Escherichia coli biofilm = experiment: Activity against biofilm, E. coli; assay type: cell-based; details: 67-150 μM peptide, 3 hr treatment
Experimental: (§6) Selected analogues were tested with each (13A). Escherichia coli biofilm, (13B). Staphylococcus aureus biofilm, and (13C) Pseudomonas aeruginosa biofilm.
(§7) However, most of the LDKA analogues fail to treat S. aureus and P. aeruginosa biofilms. Only K7H and 7F3 are capable to reduce S. aureus biofilms by ˜50% with 100 μM peptide concentration, and none of the analogues work against P. aeruginosa biofilms (FIGS. 13a-13c).

[13] = 3-kDa dextran macromolecule release assay, POPC; assay type: biochemical; details: P:L = 1:1000, pH 7 phosphate buffer
Experimental: Several different size dextrans were prepared and labelled with both TAMRA and biotin. Conjugated dextran was entrapped in POPC LUVs as described above. External dextran was removed by incubation with immobilized streptavidin. Streptavidin labelled with an Alexa-488 fluorophore was added during the leakage experiment with the peptide as previous described.^5 The sample was then incubated for 3 hr before measuring Alexa-488 fluorescence. A control without added peptide served as the 0% leakage signal and addition of 0.05% vol. Triton X-100 was used to determine 100% leakage.

human red blood cells = experiment: Hemolysis assay; assay type: cell-based
Experimental: (§8) Fresh human red blood cells were obtained from Interstate Blood Bank, Inc., and thoroughly washed in PBS until the supernatant was clear. hRBC concentration was determined using a standard hemocytometer. In hemolysis assays serial dilutions of peptide were prepared, followed by the addition of 2×10^8 hRBC/mL. After incubation for 1 hr at 37° C. the cells were centrifuged and the released hemoglobin was measured by optical absorbance of the heme group (410 nm). Negative control was buffer only (0% lysis), and the positive control was 20 μM melittin and distilled water (100% lysis). The samples were done in triplicate.

Hemolysis assay = assay type: cell-based, human; details: human
Experimental: as §8

[14] = system: Staphylococcus aureus biofilm; experiment: Activity against biofilm, S. aureus; assay type: cell-based; details: 100 μM peptide concentration, 3 hr treatment
Experimental: as §6, §7

[15] = provided by the distributor, GenScript

Substance | Minimum Inhibitory Concentration, P. aeruginosa (P. aeruginosa) | ANTS/DPX release, POPG [1] | ANTS/DPX release, POPC [2] | 3-kDa Dextran release, POPG [3] | Membrane selectivity (POPC vs POPG vesicles) [6] | Peptide-POPG, Helix ([7]; 20 °C) | Peptide-POPG, Strand ([7]; 20 °C) | Peptide-POPG, Helix ([7]; 45 °C) | Peptide-POPG, Strand ([7]; 45 °C) | Peptide-POPG, Helix ([7]; 70 °C) | Peptide-POPG, Strand ([7]; 70 °C) | Peptide-POPG, Helix ([7]; 95 °C) | Peptide-POPG, Strand ([7]; 95 °C) | Peptide-POPC, Helix ([8]; 20 °C) | Peptide-POPC, Strand ([8]; 20 °C) | Peptide-POPC, Helix ([8]; 45 °C) | Peptide-POPC, Strand ([8]; 45 °C) | Peptide-POPC, Helix ([8]; 70 °C) | Peptide-POPC, Strand ([8]; 70 °C) | Peptide-POPC, Helix ([8]; 95 °C) | other results
GLLDDAKLLAKLAGW-AMIDE (GLLDDAKLLAKLAGW-NH2) [Peptide 7D12] | no activity and NDA | 103% | 6% | 17% | PG > PC | 78% | 2% | 66% | 3% | 48% | 6% | 31% | 13% | 30% | 20% | 26% | 21% | 27% | 22% | 22% | Minimum Inhibitory Concentration, S. aureus (S. aureus): no activity and NDA; Solubility, DPBS pH 7.1 ([4]; pH 7.1): <0.1 mg/mL; Binding onto POPC [5]: does not bind; Peptide-POPC, Strand ([8]; 95 °C): 24%; Peptide-only, Strand [9]: 11%; Pore size [10]: Small; Minimum Inhibitory Concentration, MRSA [11]: NDA
H-GLADLAKLLLKLLGW-NH2 [Peptide 7F3] | NDA | 106% | 88% | 46% | Non-selective | 52% | 12% | 58% | 7% | 66% | 2% | 76% | 2% | 82% | 1% | 77% | 2% | 76% | 3% | 70% | MIC, ciprofloxacin-resistant E. coli [12]: completely fail; Elimination of E. coli biofilm (Escherichia coli biofilm): ~50%; Solubility, DMSO [4, 15]: 15000 µg/mL; Solubility, DPBS pH 7.1 [4, 15]: <0.1 mg/mL; Solubility, Ultrapure Water [4, 15]: 5000 µg/mL; 3-kDa Dextran release, POPC [13]: -3%; Peptide-POPC, Strand ([8]; 95 °C): 4%; Peptide-only, Helix [9]: 75%; Peptide-only, Strand [9]: 4%; Pore size [10]: Small; Hemolytic activity (in words) (human red blood cells): significantly haemolytic; HC50 at 1 hr (Hemolysis assay): 1100 nM; Reduction of S. aureus biofilms [14]: ~50%
H-GLLDLLKLLLKLAGW-NH2 [Peptide 28H6] | NDA | 105% | 99% | 67% | Non-selective | 18% | 32% | 23% | 29% | 27% | 25% | 55% | 7% | 58% | 10% | 64% | 6% | 68% | 6% | 65% | Minimum Inhibitory Concentration, S. aureus (S. aureus): NDA; Solubility, DMSO [4, 15]: 15000 µg/mL; Solubility, DPBS pH 7.1 [4, 15]: <0.1 mg/mL; Solubility, Ultrapure Water [4, 15]: 500 µg/mL; 3-kDa Dextran release, POPC [13]: 38%; Peptide-POPC, Strand ([8]; 95 °C): 3%; Peptide-only, Helix [9]: 63%; Peptide-only, Strand [9]: 4%; Pore size [10]: Large; Hemolytic activity (in words) (human red blood cells): significantly haemolytic; HC50 at 1 hr (Hemolysis assay): 1200 nM; Minimum Inhibitory Concentration, MRSA [11]: NDA
